“And” between values parts separate entries of the source, which are not always exact repeats. Equal entries are not always repeated. The source made the active and inactive calls. How the source made its calls: active means viability on the fitted dose curve at most 10% of control; inactive means the rest.
System: 233499-124-R-J3-PDC complex spheroid viability, % test/control
Assay: Anticancer human tumor 233499-124-R-J3-PDC patient-derived colon adenocarcinoma cell line growth inhibition
Conditions: for viability, T/C: stronger effect = lower value
Method in brief: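 Drug combinations with the LSD1 inhibitor iadademstat tested on tumor cells co-cultured as spheroids with endothelial cells and mesenchymal stem cells. Concentrations descended in half-log increments from clinical Cmax or 10 microM.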

[1] = curve of first compound, second compound 0.1 µM
[2] = curve of first compound, second compound 0.316 µM
[3] = curve of first compound, second compound 1 µM
[4] = curve of first compound, second compound 3.16 µM
[5] = curve of first compound, second compound 10 µM
[6] = second compound 0.1 µM, first compound 0.0316 µM
[7] = second compound 0.1 µM, first compound 0.1 µM
[8] = second compound 0.1 µM, first compound 0.316 µM
[9] = second compound 0.1 µM, first compound 1 µM
[10] = second compound 0.1 µM, first compound 3.16 µM
[11] = second compound 0.1 µM, first compound 10 µM
[12] = second compound 0.316 µM, first compound 0.0316 µM
[13] = second compound 0.316 µM, first compound 0.1 µM
[14] = second compound 0.316 µM, first compound 0.316 µM
[15] = second compound 0.316 µM, first compound 1 µM
[16] = second compound 0.316 µM, first compound 3.16 µM
[17] = second compound 0.316 µM, first compound 10 µM
[18] = second compound 1 µM, first compound 0.0316 µM
[19] = second compound 1 µM, first compound 0.1 µM
[20] = second compound 1 µM, first compound 0.316 µM
[21] = second compound 1 µM, first compound 1 µM
[22] = second compound 1 µM, first compound 3.16 µM
[23] = second compound 1 µM, first compound 10 µM
[24] = second compound 3.16 µM, first compound 0.0316 µM
[25] = second compound 3.16 µM, first compound 0.1 µM
[26] = second compound 3.16 µM, first compound 0.316 µM
[27] = second compound 3.16 µM, first compound 1 µM
[28] = second compound 3.16 µM, first compound 3.16 µM
[29] = second compound 3.16 µM, first compound 10 µM
[30] = second compound 10 µM, first compound 0.0316 µM
[31] = second compound 10 µM, first compound 0.1 µM
[32] = second compound 10 µM, first compound 0.316 µM
[33] = second compound 10 µM, first compound 1 µM
[34] = second compound 10 µM, first compound 3.16 µM
[35] = second compound 10 µM, first compound 10 µM
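Wherever IC50 is given: spheroids exposed to agents for one week before readout.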
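Wherever viability, T/C is given: spheroids exposed to agents for one week before readout.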

For `CC1COCCN1c1cc(C2(S(C)(=N)=O)CC2)nc(-c2ccnc3[nH]ccc23)n1` (centres undefined) + NC1CC1c1ccc(-c2cccc(O)c2)cc1, the IC50 [1] was over 10 µM, the IC50 [2] was over 10 µM and the IC50 [3] was over 10 µM. It also gave an IC50 [4] of 4.43 µM, an IC50 [5] of 3.1 µM and a viability, T/C [6] of 110%. It also gave a viability, T/C [7] of 98.1%, a viability, T/C [8] of 109% and a viability, T/C [9] of 95.5%. For the same molecule, the viability, T/C [10] was 57%, the viability, T/C [11] was 65.6% and the viability, T/C [12] was 105%. The viability, T/C [13] was 114%, the viability, T/C [14] was 101% and the viability, T/C [15] was 87.6%. The viability, T/C [16] was 60.5%, the viability, T/C [17] was 69.3% and the viability, T/C [18] was 95.6%. For the same molecule, the viability, T/C [19] was 92.5%, the viability, T/C [20] was 93.9% and the viability, T/C [21] was 87.8%. For the same molecule, the viability, T/C [22] was 59.7%, the viability, T/C [23] was 52.7% and the viability, T/C [24] was 108%. It also gave a viability, T/C [25] of 96.3%, a viability, T/C [26] of 90.3% and a viability, T/C [27] of 70.1%. It also gave a viability, T/C [28] of 48.6%, a viability, T/C [29] of 47.1% and a viability, T/C [30] of 92.2%. The viability, T/C [31] was 77.5%, the viability, T/C [32] was 80.6% and the viability, T/C [33] was 78.2%. The viability, T/C [34] was 45.3% and the viability, T/C [35] was 53.8%.
Molecule `CC(C)c1c(-c2ccccc2)nc2c(C#N)c[nH]n2c1=O` + NC1CCC(NC2CC2c2ccccc2)CC1 has an IC50 [1] of over 10 µM, an IC50 [2] of over 10 µM and an IC50 [3] of over 10 µM. It also gave an IC50 [4] of over 10 µM, an IC50 [5] of over 10 µM and a viability, T/C [6] of 119%. The viability, T/C [7] was 98.5%, the viability, T/C [8] was 99.8% and the viability, T/C [9] was 102%. It also gave a viability, T/C [10] of 118%, a viability, T/C [11] of 120% and a viability, T/C [12] of 93.6%. It also gave a viability, T/C [13] of 110%, a viability, T/C [14] of 97.3% and a viability, T/C [15] of 107%. The viability, T/C [16] was 118%, the viability, T/C [17] was 115% and the viability, T/C [18] was 83.7%. The viability, T/C [19] was 104%, the viability, T/C [20] was 90% and the viability, T/C [21] was 101%. For the same molecule, the viability, T/C [22] was 100%, the viability, T/C [23] was 101% and the viability, T/C [24] was 89.1%. The viability, T/C [25] was 85.9%, the viability, T/C [26] was 96.8% and the viability, T/C [27] was 85.6%. For the same molecule, the viability, T/C [28] was 103%, the viability, T/C [29] was 104% and the viability, T/C [30] was 83.7%. It also gave a viability, T/C [31] of 84.8%, a viability, T/C [32] of 86.2% and a viability, T/C [33] of 83.6%. The viability, T/C [34] was 85.9% and the viability, T/C [35] was 74.2%.
For `CC(C)c1c(-c2ccccc2)nc2c(C#N)c[nH]n2c1=O`, the viability, T/C (compound 0.0316 µM) was 90.9% and 92.4%, the viability, T/C (compound 0.1 µM) was 103% and 96.3% and the viability, T/C (compound 0.316 µM) was 92.6% and 89.1%. The viability, T/C (compound 1 µM) was 95% and 106%, the viability, T/C (compound 3.16 µM) was 105% and 102% and the viability, T/C (compound 10 µM) was 96.2% and 115%. It also gave an IC50 (curve of compound) of over 10 µM.
For `COc1ccc([C@@H](O)c2cc(-c3ncnc4cc(N5CCOCC5)ccc34)c(F)cc2Cl)nn1`, the viability, T/C (compound 0.0316 µM) was 81.5% and 87.1%, the viability, T/C (compound 0.1 µM) was 76.2% and 85.3% and the viability, T/C (compound 0.316 µM) was 77% and 72.1%. The viability, T/C (compound 1 µM) was 82.3% and 74.6%, the viability, T/C (compound 3.16 µM) was 61.9% and 68.9% and the viability, T/C (compound 10 µM) was 12.8% and 35.8%. For the same molecule, the IC50 (curve of compound) was 4.17 µM and 5.86 µM.
With `CCN(c1cc(-c2ccc(CN3CCOCC3)cc2)cc(C(=O)NCc2c(C)cc(C)[nH]c2=O)c1C)C1CCOCC1` + NC1CCC(NC2CC2c2ccccc2)CC1 the IC50 [1] was over 3 µM, the IC50 [2] was over 3 µM and the IC50 [3] was over 3 µM. It also gave an IC50 [4] of over 3 µM, an IC50 [5] of over 3 µM and a viability, T/C (second compound 0.1 µM, first compound 0.00949 µM) of 99.9%. The viability, T/C (second compound 0.1 µM, first compound 0.03 µM) was 117%, the outcome (second compound 0.1 µM, first compound 0.0949 µM) was “inactive” and the viability, T/C (second compound 0.1 µM, first compound 0.3 µM) was 121%. The viability, T/C (second compound 0.1 µM, first compound 0.949 µM) was 101%, the viability, T/C (second compound 0.1 µM, first compound 3 µM) was 126% and the viability, T/C (second compound 0.316 µM, first compound 0.00949 µM) was 101%. It also gave a viability, T/C (second compound 0.316 µM, first compound 0.03 µM) of 110%, a viability, T/C (second compound 0.316 µM, first compound 0.0949 µM) of 113% and a viability, T/C (second compound 0.316 µM, first compound 0.3 µM) of 102%. The viability, T/C (second compound 0.316 µM, first compound 0.949 µM) was 118%, the viability, T/C (second compound 0.316 µM, first compound 3 µM) was 135% and the viability, T/C (second compound 1 µM, first compound 0.00949 µM) was 80.9%. For the same molecule, the viability, T/C (second compound 1 µM, first compound 0.03 µM) was 77.9%, the viability, T/C (second compound 1 µM, first compound 0.0949 µM) was 80.4% and the viability, T/C (second compound 1 µM, first compound 0.3 µM) was 96.2%. The viability, T/C (second compound 1 µM, first compound 0.949 µM) was 88.5%, the viability, T/C (second compound 1 µM, first compound 3 µM) was 122% and the viability, T/C (second compound 3.16 µM, first compound 0.00949 µM) was 75.5%. For the same molecule, the viability, T/C (second compound 3.16 µM, first compound 0.03 µM) was 95.2%, the viability, T/C (second compound 3.16 µM, first compound 0.0949 µM) was 85.8% and the viability, T/C (second compound 3.16 µM, first compound 0.3 µM) was 87.4%. It also gave a viability, T/C (second compound 3.16 µM, first compound 0.949 µM) of 76.2%, a viability, T/C (second compound 3.16 µM, first compound 3 µM) of 104% and a viability, T/C (second compound 10 µM, first compound 0.00949 µM) of 86%. For the same molecule, the viability, T/C (second compound 10 µM, first compound 0.03 µM) was 68%, the viability, T/C (second compound 10 µM, first compound 0.0949 µM) was 69.4% and the viability, T/C (second compound 10 µM, first compound 0.3 µM) was 74.9%. For the same molecule, the viability, T/C (second compound 10 µM, first compound 0.949 µM) was 83.5% and the viability, T/C (second compound 10 µM, first compound 3 µM) was 90.2%.
`COc1ccc([C@@H](O)c2cc(-c3ncnc4cc(N5CCOCC5)ccc34)c(F)cc2Cl)nn1` + NC1CCC(NC2CC2c2ccccc2)CC1 was tested, and the IC50 [1] was 4.14 µM, the IC50 [2] was 3.72 µM and the IC50 [3] was 4.02 µM. The IC50 [4] was 4.02 µM, the IC50 [5] was 2.79 µM and the viability, T/C [6] was 102%. The viability, T/C [7] was 82.3%, the viability, T/C [8] was 86.9% and the viability, T/C [9] was 81.8%. It also gave a viability, T/C [10] of 62.4%, a viability, T/C [11] of 12.6% and a viability, T/C [12] of 102%. For the same molecule, the viability, T/C [13] was 96.8%, the viability, T/C [14] was 86.7% and the viability, T/C [15] was 79.8%. The viability, T/C [16] was 58.4%, the viability, T/C [17] was 10.8% and the viability, T/C [18] was 94.4%. For the same molecule, the viability, T/C [19] was 79.2%, the viability, T/C [20] was 64.7% and the viability, T/C [21] was 74.1%. For the same molecule, the viability, T/C [22] was 64%, the viability, T/C [23] was 12.8% and the viability, T/C [24] was 85.4%. For the same molecule, the viability, T/C [25] was 83.8%, the viability, T/C [26] was 75.2% and the viability, T/C [27] was 67.5%. For the same molecule, the viability, T/C [28] was 65.3%, the viability, T/C [29] was 9.45% and the viability, T/C [30] was 92.6%. The viability, T/C [31] was 95.1%, the viability, T/C [32] was 63.1% and the viability, T/C [33] was 57.4%. The viability, T/C [34] was 65.9% and the viability, T/C [35] was 11.2%.

From PubChem BioAssay AID1918930 (Molecular Pharmacology Branch, DTP, NCI, 2023)
